Here are results for 1 compound from patent US5977133A, “Pyridone antibiotic with improved safety profile” (priority 1998, dated 1999).

Structures can show the parent of a compound that is named as a salt.

The test system of this assay is bacteria. The assay is described as follows: In vitro antibacterial activity (overall statement). The assay is classed as cell-based. Particulars: ciprofloxacin resistant strains.

`CN[C@@H]1CN(c2c(F)cn3c(=O)c(C(=O)O)cc(C4CC4)c3c2C)CC12CC2` [Example 1, 1-cyclopropyl-8-(7(S)-N-methylamino-5-azaspiro[2.4]heptyl)-7-fluoro-9-methyl-4-oxo-4H-guinolizine-3-carboxylic acid hydrochloride]: the “activity against ciprofloxacin resistant strains in words” value is listed as “highly active against ciprofloxacin resistant strains”.
